The text below walks through data of ChEMBL document CHEMBL1155676, “Isolation and biochemical characterization of a new topoisomerase I inhibitor from Ocotea leucoxylon” (J Nat Prod, 2000).

One may read the IC50 as the concentration that gives 50% inhibition.

The source made the active and inactive calls. The rule behind the calls is not given here.

For one test, the species on record is Mus musculus. Put plainly: Cytotoxicity against mouse lung carcinoma cells upto 30 uM. Type of test: functional, cell-based.
For the next test, the system named is COLO 205. Description: Cytotoxicity against human COLO205 cells upto 30 uM. Type of test: functional, cell-based.
Test [1] addresses T1, DNA topoisomerase 1 (Homo sapiens) (UniProt P11387).
T1 sequence (whole entry): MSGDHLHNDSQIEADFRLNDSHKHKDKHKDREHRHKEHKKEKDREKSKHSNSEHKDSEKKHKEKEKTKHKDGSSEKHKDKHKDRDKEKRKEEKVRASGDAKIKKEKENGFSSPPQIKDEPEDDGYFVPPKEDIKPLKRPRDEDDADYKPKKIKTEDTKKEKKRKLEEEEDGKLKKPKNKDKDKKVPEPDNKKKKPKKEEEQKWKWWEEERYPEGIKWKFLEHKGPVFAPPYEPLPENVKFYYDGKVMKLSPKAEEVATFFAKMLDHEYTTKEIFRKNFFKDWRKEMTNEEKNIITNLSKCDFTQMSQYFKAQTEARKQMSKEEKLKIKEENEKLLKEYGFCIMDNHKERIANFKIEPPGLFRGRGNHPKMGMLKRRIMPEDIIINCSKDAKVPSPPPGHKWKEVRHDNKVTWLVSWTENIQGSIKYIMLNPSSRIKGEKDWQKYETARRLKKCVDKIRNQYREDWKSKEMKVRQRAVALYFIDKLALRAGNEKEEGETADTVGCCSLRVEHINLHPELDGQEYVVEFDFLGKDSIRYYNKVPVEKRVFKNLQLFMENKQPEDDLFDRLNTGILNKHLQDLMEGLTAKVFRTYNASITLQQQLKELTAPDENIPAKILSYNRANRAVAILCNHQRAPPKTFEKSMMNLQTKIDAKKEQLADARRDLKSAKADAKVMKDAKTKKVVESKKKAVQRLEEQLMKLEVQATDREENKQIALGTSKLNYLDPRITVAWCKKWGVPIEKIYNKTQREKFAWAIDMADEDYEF
Put plainly: Induction of human recombinant topoisomerase 1-mediated pBR322 plasmid DNA cleavage assessed as increase in nicked form 2 at 100 uM after 60 mins.

In the next test the test system is B16-F10. Put plainly: Cytotoxicity against mouse B16F10 cells upto 30 uM. Type of test: functional, cell-based.
For test [2], the target named is T1, DNA topoisomerase 1 (Homo sapiens). Put plainly: Inhibition of human recombinant DNA topoisomerase 1-mediated pBR322 DNA relaxation activity at 20 to 200 uM after 30 mins by gel electrophoresis.
Test [3] relates to Saccharomyces cerevisiae. Description: Growth inhibition of Saccharomyces cerevisiae RS322 after 48 hrs by XTT assay. Type of test: functional. Background: Tetrazolium dyes change colour on reduction, which living cells bring about.
In test [4] the test system is P388. Put plainly: Cytotoxicity against mouse P388 cells by soft-agar colony-formation assay. Type of test: functional, cell-based.
Test [5] has as its system P388. Description: Cytotoxicity against camptothecin-resistant mouse P388 cells by soft-agar colony-formation assay. Type of test: functional, cell-based.
The test system of test [6] is Saccharomyces cerevisiae. Description: Growth inhibition of Saccharomyces cerevisiae RJ03 after 48 hrs by XTT assay. Type of test: functional.
For test [7], the system named is Saccharomyces cerevisiae. Put plainly: Growth inhibition of Saccharomyces cerevisiae RS321 after 48 hrs by XTT assay. Type of test: functional.
The species named for the next test is Bos taurus. Put plainly: Inhibition of calf thymus DNA topoisomerase 1-mediated supercoiled pSP64 plasmid DNA relaxation at 20 uM.

Turning to `COc1cc2c(cc1OC)-c1c3c(cc4ccnc(c14)C2=O)OCO3` [DICENTRINONE], the Activity result was “Not toxic” in the test filed under Mus musculus, “Not toxic” in the test on COLO 205, 29% in test [1] and “Not toxic” in the test with B16-F10. In test [2], the result was inactive. The IC12 in the test with Saccharomyces cerevisiae [3] is 49 µg/mL; in the test with Saccharomyces cerevisiae [6], above 2000 µg/mL; in the test on Saccharomyces cerevisiae [7], above 2000 µg/mL. Moreover, the concentration for half-maximal inhibition (IC50) with P388 [4] and in the test with P388 [5] was 100 µM in each case.

`COc1cc2c(cc1OC)-c1c3c(cc4c1[C@H](C2)N(C)CC4)OCO3`: the outcome in the test on Saccharomyces cerevisiae [3], with Saccharomyces cerevisiae [6] and in the test with Saccharomyces cerevisiae [7] was inactive.

As for `COc1cc2c[n+](C)c3c4cc5c(cc4ccc3c2cc1OC)OCO5`, the outcome in the test listed under Bos taurus was Active.
